Patent publication US10570117B2, “Phenylimidazole compound” (Otsuka Pharmaceutical Factory, Inc., priority 2015, dated 2020)
≈ marks a conversion by molar mass, not a printed value. Read-outs that look alike come from different tables or passages of the source.

What was measured:
[1] = Solubility in gastric juice or intestinal juice model fluid (precipitation method using DMSO); format: physicochemical; conditions: room temperature
Summary of the method: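 Dissolved amount (μg/mL) quantified by UV of filtrate versus pre-made calibration curves. Precipitation approach: DMSO solutions spiked into pH 1.2 (JP 1st fluid) or pH 6.8 (JP 2nd fluid) medium, shaken at room temperature for 24 h before insolubles were filtered off.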

[2] = tested on: lipoprotein lipase (LPL) gene; assay: LPL mRNA elevating action (RT-PCR quantification of LPL mRNA in C2Cl2 cells); format: cell-based, mouse; conditions: Mus musculus, 24 h, compound 10 μM, ratio relative to the amount of LPL mRNA in cells with DMSO only, read-out: Rate of increase in LPL mRNA
Summary of the method: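 Read-out is LPL mRNA relative to vehicle (DMSO = 1), measured by reverse transcription and 20-cycle real-time PCR. Cells were the mouse striated-muscle line C2Cl2, treated 24 h with 10 μM compound in DMEM containing 10% FBS.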

[3] = pH 1.2, simulated gastric fluid, kinetic from dmso stock, 1st fluid for Disintegration Test of Japanese Pharmacopoeia (pH: 1.2), read-out: Solubility (μg/mL) 1st fluid
[4] = pH 6.8, kinetic from dmso stock, 2nd fluid for Disintegration Test of Japanese Pharmacopoeia (pH: 6.8), read-out: Solubility (μg/mL) 2nd fluid

| SMILES | solubility at 24 h [1, 3] [µg/mL] | solubility at 24 h [1, 4] [µg/mL] | melting point | fold induction at 10 µM [2] |
| --- | --- | --- | --- | --- |
| COc1cc(-c2nc(-c3ccc(Cl)nc3)[nH]c2Cl)ccc1OCc1cccc(F)n1 [Example 220] | < 0.3 | < 7.9 | 198 to 201 °C | 2.69 |
| COc1cc(OCc2ccc(C(F)(F)F)cn2)ccc1-c1nc(-c2ccc(Cl)nc2)[nH]c1Br [Example 225] | 5.5 (≈ 10.2 µM) | 0.9 (≈ 1.67 µM) | 186 to 188 °C | 2.8 |
| COc1cc(OC(C)c2cccc(C(F)(F)F)n2)ccc1-c1[nH]c(-c2ccc(F)nc2)nc1Cl (stereo not drawn) [Example 237] | 7.1 (≈ 14.4 µM) | < 1.8 | 170 to 175 °C | 2.82 |
| COc1cc(OC(C)c2ccc(C(F)(F)F)nc2)ccc1-c1[nH]c(-c2ccc(F)nc2)nc1Cl (stereo not drawn) [Example 239] | 8.8 (≈ 17.9 µM) | 15.6 (≈ 31.7 µM) | 148 to 150 °C | 2.39 |
| COc1cc(OCc2ncc(F)cc2F)ccc1-c1[nH]c(-c2ccc(Cl)nc2)nc1Cl [Example 247] | 8.4 (≈ 18.1 µM) | 5.3 (≈ 11.4 µM) | 187 to 190 °C | 2.25 |
| COc1cc(OCc2ncccc2C(F)(F)F)ccc1-c1[nH]c(-c2ccc(Cl)nc2)nc1Br [Example 253] | 5.9 (≈ 10.9 µM) | 1 (≈ 1.85 µM) | 176 to 186 °C | 2.62 |
| COc1cc(OCc2ncc(C(F)(F)F)cc2F)ccc1-c1[nH]c(-c2ccc(F)nc2)nc1Br [Example 255] | 17.5 (≈ 32.3 µM) | < 0.4 | 156 to 158 °C | 3.14 |
| COc1cc(OCc2ncc(Cl)cc2F)ccc1-c1[nH]c(-c2ccc(F)nc2)nc1Br [Example 267] | 17.7 (≈ 34.9 µM) | 0.4 (≈ 0.788 µM) | 175 to 178 °C | 2.66 |
| COc1cc(OCc2cncc(C(F)(F)F)c2)ccc1-c1[nH]c(-c2ccc(F)nc2)nc1Cl [Example 279] | 4.1 (≈ 8.56 µM) | 0.5 (≈ 1.04 µM) | 188 to 190 °C | 3.63 |
| COc1cc(OCc2ncc(C(F)(F)F)cc2F)ccc1-c1[nH]c(-c2ccc(F)nc2)nc1Cl [Example 281] | 9.7 (≈ 19.5 µM) | 9.3 (≈ 18.7 µM) | 150 to 152 °C | 3.36 |
| COc1cc(OCc2ccc(C(F)(F)F)cn2)ccc1-c1nc(-c2ccc(F)nc2)n(C)c1Br [Example 302] | > 107 | < 0.4 | 179 to 181 °C | 2.44 |
| COc1cc(OCc2ccc(C(F)(F)F)cn2)ccc1-c1c(Br)nc(-c2ccc(F)nc2)n1C [Example 303] | 84.3 (≈ 157 µM) | < 0.4 | 130 to 132 °C | 3.29 |
| COc1cc(OCc2ccc(C(F)(F)F)cn2)ccc1-c1c(Cl)nc(-c2ccc(Cl)nc2)n1C [Example 309] | 14.8 (≈ 29.1 µM) | < 0.4 | 133 to 135 °C | 2.37 |
| COc1cc(O)ccc1-c1[nH]c(-c2ccc(F)nc2)nc1Cl [Example 313] | 62.3 (≈ 195 µM) | 5 (≈ 15.6 µM) | 209 to 214 °C (dec.) | 1.33 |
| COc1cc(OCc2c(F)cc(C(F)(F)F)c[n+]2[O-])ccc1-c1cnc(-c2ccc(F)nc2)[nH]1 [Example 316] | 94.4 (≈ 197 µM) | 4.9 (≈ 10.2 µM) | 162 to 167 °C | 2.53 |
| COc1cc(OCc2c(F)cc(C(F)(F)F)c[n+]2[O-])ccc1-c1[nH]c(-c2ccc(F)nc2)nc1Cl [Example 317] | 69.1 (≈ 135 µM) | 9.3 (≈ 18.1 µM) | 105 to 110 °C | 2.9 |

Second part, led by results:

| solubility at 24 h [1, 3] [µg/mL] | solubility at 24 h [1, 4] [µg/mL] | melting point | SMILES | fold induction at 10 µM [2] |
| --- | --- | --- | --- | --- |
| 84.3 (≈ 198 µM) | 1.8 (≈ 4.23 µM) | 208 to 210 °C (dec.) | COc1cc(OCc2cnc(C)cn2)ccc1-c1nc(-c2ccc(F)nc2)[nH]c1Cl [Example 216] | 2.62 |
| 0.4 (≈ 0.742 µM) | < 9.6 | 170 to 172 °C | COCCOc1cc(OCc2ccc(C(F)(F)F)cn2)ccc1-c1nc(-c2ccc(Cl)nc2)[nH]c1Cl [Example 218] | 1.21 |
| 66.5 (≈ 134 µM) | < 8.8 | 182 to 184 °C | COc1cc(OCc2ncccc2C(F)(F)F)ccc1-c1nc(-c2ccc(Cl)nc2)[nH]c1Cl [Example 221] | 3.47 |
| 7.2 (≈ 16.8 µM) | < 0.3 | 172 to 174 °C | COc1cc(OCc2cnccn2)ccc1-c1nc(-c2ccc(Cl)nc2)[nH]c1Cl [Example 230] | 1.58 |
| 9.9 (≈ 20.7 µM) | 1.1 (≈ 2.3 µM) | 190 to 193 °C | COc1cc(OCc2ccc(C(F)(F)F)cn2)ccc1-c1nc(-c2ccc(F)nc2)[nH]c1Cl [Example 233] | 3.87 |
| 92.8 (≈ 199 µM) | < 0.3 | 171 to 175 °C | COc1cc(-c2nc(C3CCCCC3)[nH]c2Cl)ccc1OCc1ccc(C(F)(F)F)cn1 [Example 234] | 3.06 |
| 7.5 (≈ 14.4 µM) | 5.6 (≈ 10.7 µM) | 173 to 175 °C | COc1cc(OC(C)c2ncc(Br)cc2F)ccc1-c1[nH]c(-c2ccc(F)nc2)nc1Cl (stereo not drawn) [Example 238] | 2.42 |
| 11.4 (≈ 21.8 µM) | < 0.4 | 132 to 162 °C | COc1cc(OCc2cnccc2C(F)(F)F)ccc1-c1[nH]c(-c2ccc(F)nc2)nc1Br [Example 256] | 3.12 |
| 2.2 (≈ 4.2 µM) | 5.8 (≈ 11.1 µM) | 195 to 199 °C | COc1cc(OCc2ncc(Cl)cc2Br)ccc1-c1[nH]c(-c2ccc(F)nc2)nc1Cl [Example 265] | 3.36 |
| 64.3 (≈ 131 µM) | 4.6 (≈ 9.36 µM) | 161 to 164 °C | COc1cc(OCc2ncc(F)cc2F)ccc1-c1[nH]c(-c2ccc(F)nc2)nc1Br [Example 266] | 2.38 |
| 13.8 (≈ 25 µM) | 6.6 (≈ 12 µM) | 179 to 181 °C | COc1cc(OCc2ncc(Br)cc2F)ccc1-c1[nH]c(-c2ccc(F)nc2)nc1Br [Example 268] | 2.53 |
| 9.1 (≈ 17.4 µM) | < 0.4 | 176 to 179 °C | COc1cc(OCc2cncc(C(F)(F)F)c2)ccc1-c1[nH]c(-c2ccc(F)nc2)nc1Br [Example 270] | 3.81 |
| 6.7 (≈ 12 µM) | 0.4 (≈ 0.717 µM) | 167 to 168 °C | COc1cc(OCc2ncc(Cl)cc2C(F)(F)F)ccc1-c1[nH]c(-c2ccc(F)nc2)nc1Br [Example 274] | 3.41 |
| 66.5 (≈ 127 µM) | 6.7 (≈ 12.8 µM) | 199 to 203 °C (dec.) | COc1cc(OCc2ccncc2C(F)(F)F)ccc1-c1[nH]c(-c2ccc(F)nc2)nc1Br [Example 276] | 2.36 |
| < 0.3 | 27.6 (≈ 56.1 µM) | 137 to 139 °C | COc1cc(O[C@H](C)c2ccc(C(F)(F)F)cc2)ccc1-c1[nH]c(-c2ccc(F)nc2)nc1Cl [Example 290] | 2.64 |
| > 111 | < 9.9 | 144 to 146 °C | COc1cc(OCc2ccc(C(F)(F)F)cn2)ccc1-c1nc(C2CCC(F)(F)CC2)n(CC2CC2)c1Cl [Example 292] | 2.81 |
| 104 (≈ 189 µM) | 2.4 (≈ 4.37 µM) | 123 to 126 °C | COc1cc(OCc2ccc(C(F)(F)F)cn2)ccc1-c1nc(-c2ccc(Cl)nc2)n(CC2CC2)c1Cl [Example 294] | 2.42 |
| 18.3 (≈ 33.3 µM) | 1.1 (≈ 2 µM) | 130 to 132 °C | COc1cc(OCc2ccc(C(F)(F)F)cn2)ccc1-c1c(Cl)nc(-c2ccc(Cl)nc2)n1CC1CC1 [Example 295] | 4.06 |
| 89.8 (≈ 167 µM) | 7 (≈ 13 µM) | 131 to 136 °C | COCCn1c(-c2ccc(F)nc2)nc(Cl)c1-c1ccc(OCc2ccc(C(F)(F)F)cn2)cc1OC [Example 297] | 2.76 |
| 15.1 (≈ 27.3 µM) | < 0.4 | 125 to 127 °C | COc1cc(OCc2ccc(C(F)(F)F)cn2)ccc1-c1c(Br)nc(-c2ccc(Cl)nc2)n1C [Example 301] | 2.99 |
| 50.2 (≈ 109 µM) | 0.9 (≈ 1.95 µM) | 234 to 239 °C | COc1cc(OCc2ccc(C(F)(F)F)[n+]([O-])c2)ccc1-c1cnc(-c2ccc(F)nc2)[nH]1 [Example 314] | 1.66 |
| 1.8 (≈ 3.64 µM) | 2.7 (≈ 5.46 µM) | > 250 °C | COc1cc(OCc2ccc(C(F)(F)F)[n+]([O-])c2)ccc1-c1[nH]c(-c2ccc(F)nc2)nc1Cl [Example 315] | 2.7 |
| 100 (≈ 180 µM) | 8.7 (≈ 15.6 µM) | 105 to 120 °C | COc1cc(OCc2c(F)cc(C(F)(F)F)c[n+]2[O-])ccc1-c1[nH]c(-c2ccc(F)nc2)nc1Br [Example 318] | 3.15 |
